# Laboratory results published in patent publication US11780845B2 (Relay Therapeutics, Inc., priority 2019, dated 2023).
# Molecular target: FGFR2 (Homo sapiens (Human), UniProt P21802)
# Assay: Biochemical FGFR2 Caliper assay
# Conditions: not given
# Chain of FGFR2 (P21802 22-821): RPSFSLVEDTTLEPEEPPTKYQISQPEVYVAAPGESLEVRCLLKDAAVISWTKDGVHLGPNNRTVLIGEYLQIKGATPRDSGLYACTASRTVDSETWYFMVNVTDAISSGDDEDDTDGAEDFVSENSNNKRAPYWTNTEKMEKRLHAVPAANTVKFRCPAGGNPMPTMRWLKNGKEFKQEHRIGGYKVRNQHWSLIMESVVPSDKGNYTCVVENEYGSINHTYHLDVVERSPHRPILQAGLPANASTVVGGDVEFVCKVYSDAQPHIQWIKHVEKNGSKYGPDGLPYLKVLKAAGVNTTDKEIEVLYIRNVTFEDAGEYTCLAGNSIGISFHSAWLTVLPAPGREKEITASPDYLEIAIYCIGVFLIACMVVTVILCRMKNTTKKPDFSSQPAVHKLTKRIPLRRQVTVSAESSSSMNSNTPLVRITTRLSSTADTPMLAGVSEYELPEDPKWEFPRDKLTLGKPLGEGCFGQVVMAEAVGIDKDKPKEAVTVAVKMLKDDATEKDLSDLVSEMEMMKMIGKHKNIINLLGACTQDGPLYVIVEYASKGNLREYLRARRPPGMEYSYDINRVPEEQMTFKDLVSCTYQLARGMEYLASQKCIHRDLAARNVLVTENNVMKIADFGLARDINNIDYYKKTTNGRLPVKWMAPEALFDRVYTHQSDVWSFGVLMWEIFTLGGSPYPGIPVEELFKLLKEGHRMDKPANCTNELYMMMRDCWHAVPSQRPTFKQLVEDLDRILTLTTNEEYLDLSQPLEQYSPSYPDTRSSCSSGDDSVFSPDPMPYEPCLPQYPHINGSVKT
row,IC50 [nM],Structure (SMILES)
1,1000 to 100000,C=C(C)C(=O)Nc1ccc(-c2c(-c3ccc(OCc4ccccn4)c(F)c3)c3c(N)ncnc3n2C)cc1 [Example 1436]
2,1000 to 100000,C=C(C)C(=O)Nc1ccc(-c2c(C3=CC[C@@H](C(=O)N4CCCC4)CC3)c3c(N)ncnc3n2C)c(Cl)c1 [Example 1016]
3,< 100,C#Cc1ncc(-c2c(-c3ccc(Oc4nccc(C)n4)c(F)c3)c3c(N)ncnc3n2C)c(C)c1OC [Example 1353]
4,1000 to 100000,"C=C(C)C(=O)Nc1ccc(-c2c(C3=CC[C@@H](C(=O)N4CCCC4)C[C@H]3C)c3c(N)ncnc3n2C)cc1 (single isomer, unassigned) [Example 936]"
5,250 to 1000,C=C(C)C(=O)Nc1ccc(-c2c(-c3ccc(C(=O)N[C@H]4C[C@@H](F)C4)c(OC(F)F)c3)c3c(N)ncnc3n2C)cc1 [Example 971]
6,< 100,C=C(C)C(=O)Nc1ccc(-c2c(-c3ccc(C(=O)N4CCCCC4)cc3)c3c(N)ncnn3c2CO)cc1 [Example 846]
7,< 100,C=C(C)C(=O)Nc1ccc(-c2c(-c3ccc(Oc4cccc(C)n4)c(F)c3)c3c(N)ncnc3n2C)c(C)n1 [Example 1103]
8,1000 to 100000,C=C(C)C(=O)Nc1ccc(-c2c(-c3cnn(-c4cccc(C(F)(F)F)c4)c3)c3c(N)ncnc3n2C)cc1 [Example 1291]
9,1000 to 100000,C=C(C)C(=O)Nc1ccc(-c2c(-c3ccc4cn[nH]c4c3)c3c(N)ncnc3n2C)cc1 [Example 1301]
10,< 100,C=CC(=O)N1CC(c2c(-c3ccc(Oc4cccc(C)n4)cc3)c3c(N)ncnc3n2C)C[C@@H]1C (stereo partly shown) [Example 839]
11,< 100,C#Cc1cc(C)c(-c2c(-c3ccc(Oc4nccc(C)n4)cc3)c3c(N)ncnc3n2C)nn1 [Example 1136]
12,< 100,C#Cc1cc(C)c(-c2cn3ncnc(N)c3c2-c2ccc(Oc3nccc(C)n3)c(F)c2)cn1 [Example 1321]
13,250 to 1000,"C=CS(=O)(=O)N1CC[C@H](c2c(-c3ccc(C(=O)N4CCCC4)cc3)c3c(N)ncnc3n2C)C1 (single isomer, unassigned) [Example 863]"
14,250 to 1000,C=C(C)C(=O)Nc1ccc(-c2c(-c3cnc(-c4cccc(F)c4)s3)c3c(N)ncnc3n2C)cc1 [Example 1421]
15,< 100,C#Cc1cc2c(cn1)-c1c(-c3ccc(Oc4nccc(C)n4)c(F)c3)c3c(N)ncnc3n1C[C@@H](C)O2 [Example 1456]
16,1000 to 100000,C#Cc1ccc(-c2c(-c3ccc(Oc4nccc(C)n4)cc3)c3c(N)ncnc3n2C)c(C)n1 [Example 1085]
17,1000 to 100000,C=C(C)C(=O)Nc1ccc(-c2nn3ccnc(N)c3c2C2=CCC(C(=O)N3CCCC3)CC2)cc1 (stereo not shown) [Example 868]
18,100 to 250,C=C(C)C(=O)Nc1ccc(-c2c(-c3ccc4[nH]ccc4c3)c3c(N)ncnc3n2C)cc1 [Example 1296]
19,1000 to 100000,C=C(C)C(=O)Nc1ccc(-c2c(C3=CC[C@@H](S(=O)(=O)N4CCCC4)CC3)c3c(N)ncnc3n2C)c(C)c1 [Example 1115]
20,< 100,"Cn1c([C@@H]2CCN(C#N)C2)c(-c2ccc(C(=O)N3CCCC3)cc2)c2c(N)ncnc21 (single isomer, unassigned) [Example 860]"
21,< 100,C#Cc1cc(OC)c(-c2c(-c3ccc(Oc4nccc(C)n4)cn3)c3c(N)ncnc3n2C)cn1 [Example 1491]
22,1000 to 100000,"C=C(C)C(=O)Nc1ccc(-c2c(C3=CC[C@H](C(=O)N4CCCC4)C[C@@H]3C)c3c(N)ncnc3n2C)cc1 (single isomer, unassigned) [Example 939]"
23,1000 to 100000,C=C(C)C(=O)Nc1ccc(-c2c(-c3ccc4ncccc4c3)c3c(N)ncnc3n2C)cc1 [Example 1282]
24,1000 to 100000,C=CC(=C)Nc1ccc(-c2c(-c3cnn(C)c3)c3c(N)ncnc3n2C)c(C)c1 [Example 1132]
25,250 to 1000,C=CC(=O)N1C[C@@H](O)[C@@H](c2c(-c3ccc(Oc4cccc(C)n4)cc3)c3c(N)ncnc3n2C)C1 [Example 807]
26,100 to 250,C=C(C)C(=O)Nc1ccc(-c2c(C3=CC[C@H](S(=O)(=O)N4CCCC4)CC3)c3c(N)ncnc3n2C)c(C)c1 [Example 1116]
27,250 to 1000,"C#Cc1cc(C)c(-c2c(C3=CC[C@H](C(=O)N4CCCC45COC5)CC3)c3c(N)ncnc3n2C)cn1 (single isomer, unassigned) [Example 1238]"
28,100 to 250,C#Cc1ccc(-c2c(-c3ccc(Oc4nccc(C)n4)cc3)c3c(N)ncnc3n2C)cc1F [Example 1175]
29,< 100,[2H]C#Cc1cc(C)c(-c2c(-c3ccc(Oc4nccc(C)n4)c(F)c3)c3c(N)ncnc3n2C)cn1 [Example 1431]

# System: SNU-16
# Assay: Cell SNU-16 assay
# Assay type: cell-based
# Conditions: Homo sapiens, SNU-16, SNU-16 cells
row,IC50 [nM],Structure (SMILES)
1,1000 to 100000,C=C(C)C(=O)Nc1ccc(-c2c(-c3ccc(OCc4ccccn4)c(F)c3)c3c(N)ncnc3n2C)cc1 [Example 1436]
2,1000 to 100000,C=C(C)C(=O)Nc1ccc(-c2c(C3=CC[C@@H](C(=O)N4CCCC4)CC3)c3c(N)ncnc3n2C)c(Cl)c1 [Example 1016]
3,≤ 100,C#Cc1ncc(-c2c(-c3ccc(Oc4nccc(C)n4)c(F)c3)c3c(N)ncnc3n2C)c(C)c1OC [Example 1353]
4,250 to 1000,"C=C(C)C(=O)Nc1ccc(-c2c(C3=CC[C@@H](C(=O)N4CCCC4)C[C@H]3C)c3c(N)ncnc3n2C)cc1 (single isomer, unassigned) [Example 936]"
5,250 to 1000,C=C(C)C(=O)Nc1ccc(-c2c(-c3ccc(C(=O)N[C@H]4C[C@@H](F)C4)c(OC(F)F)c3)c3c(N)ncnc3n2C)cc1 [Example 971]
6,1000 to 100000,C=C(C)C(=O)Nc1ccc(-c2c(-c3ccc(C(=O)N4CCCCC4)cc3)c3c(N)ncnn3c2CO)cc1 [Example 846]
7,≤ 100,C=C(C)C(=O)Nc1ccc(-c2c(-c3ccc(Oc4cccc(C)n4)c(F)c3)c3c(N)ncnc3n2C)c(C)n1 [Example 1103]
8,1000 to 100000,C=C(C)C(=O)Nc1ccc(-c2c(-c3cnn(-c4cccc(C(F)(F)F)c4)c3)c3c(N)ncnc3n2C)cc1 [Example 1291]
9,1000 to 100000,C=C(C)C(=O)Nc1ccc(-c2c(-c3ccc4cn[nH]c4c3)c3c(N)ncnc3n2C)cc1 [Example 1301]
10,≤ 100,C=CC(=O)N1CC(c2c(-c3ccc(Oc4cccc(C)n4)cc3)c3c(N)ncnc3n2C)C[C@@H]1C (stereo partly shown) [Example 839]
11,≤ 100,C#Cc1cc(C)c(-c2c(-c3ccc(Oc4nccc(C)n4)cc3)c3c(N)ncnc3n2C)nn1 [Example 1136]
12,≤ 100,C#Cc1cc(C)c(-c2cn3ncnc(N)c3c2-c2ccc(Oc3nccc(C)n3)c(F)c2)cn1 [Example 1321]
13,100 to 250,"C=CS(=O)(=O)N1CC[C@H](c2c(-c3ccc(C(=O)N4CCCC4)cc3)c3c(N)ncnc3n2C)C1 (single isomer, unassigned) [Example 863]"
14,250 to 1000,C=C(C)C(=O)Nc1ccc(-c2c(-c3cnc(-c4cccc(F)c4)s3)c3c(N)ncnc3n2C)cc1 [Example 1421]
15,≤ 100,C#Cc1cc2c(cn1)-c1c(-c3ccc(Oc4nccc(C)n4)c(F)c3)c3c(N)ncnc3n1C[C@@H](C)O2 [Example 1456]
16,1000 to 100000,C#Cc1ccc(-c2c(-c3ccc(Oc4nccc(C)n4)cc3)c3c(N)ncnc3n2C)c(C)n1 [Example 1085]
17,1000 to 100000,C=C(C)C(=O)Nc1ccc(-c2nn3ccnc(N)c3c2C2=CCC(C(=O)N3CCCC3)CC2)cc1 (stereo not shown) [Example 868]
18,250 to 1000,C=C(C)C(=O)Nc1ccc(-c2c(-c3ccc4[nH]ccc4c3)c3c(N)ncnc3n2C)cc1 [Example 1296]
19,1000 to 100000,C=C(C)C(=O)Nc1ccc(-c2c(C3=CC[C@@H](S(=O)(=O)N4CCCC4)CC3)c3c(N)ncnc3n2C)c(C)c1 [Example 1115]
20,250 to 1000,"Cn1c([C@@H]2CCN(C#N)C2)c(-c2ccc(C(=O)N3CCCC3)cc2)c2c(N)ncnc21 (single isomer, unassigned) [Example 860]"
21,≤ 100,C#Cc1cc(OC)c(-c2c(-c3ccc(Oc4nccc(C)n4)cn3)c3c(N)ncnc3n2C)cn1 [Example 1491]
22,1000 to 100000,"C=C(C)C(=O)Nc1ccc(-c2c(C3=CC[C@H](C(=O)N4CCCC4)C[C@@H]3C)c3c(N)ncnc3n2C)cc1 (single isomer, unassigned) [Example 939]"
23,1000 to 100000,C=C(C)C(=O)Nc1ccc(-c2c(-c3ccc4ncccc4c3)c3c(N)ncnc3n2C)cc1 [Example 1282]
24,250 to 1000,C=CC(=C)Nc1ccc(-c2c(-c3cnn(C)c3)c3c(N)ncnc3n2C)c(C)c1 [Example 1132]
25,250 to 1000,C=CC(=O)N1C[C@@H](O)[C@@H](c2c(-c3ccc(Oc4cccc(C)n4)cc3)c3c(N)ncnc3n2C)C1 [Example 807]
26,≤ 100,C=C(C)C(=O)Nc1ccc(-c2c(C3=CC[C@H](S(=O)(=O)N4CCCC4)CC3)c3c(N)ncnc3n2C)c(C)c1 [Example 1116]
27,100 to 250,"C#Cc1cc(C)c(-c2c(C3=CC[C@H](C(=O)N4CCCC45COC5)CC3)c3c(N)ncnc3n2C)cn1 (single isomer, unassigned) [Example 1238]"
28,≤ 100,C#Cc1ccc(-c2c(-c3ccc(Oc4nccc(C)n4)cc3)c3c(N)ncnc3n2C)cc1F [Example 1175]
29,≤ 100,[2H]C#Cc1cc(C)c(-c2c(-c3ccc(Oc4nccc(C)n4)c(F)c3)c3c(N)ncnc3n2C)cn1 [Example 1431]
